# Data reported in PMC4352194, “Physicochemical and Biological Properties of Oxovanadium(IV), Cobalt(II) and Nickel(II) Complexes with Oxydiacetate Anions” (Biological Trace Element Research, 2014).
# pIC50: −log10 of the molar value. Read-outs that look alike come from different tables or passages of the source.
# Legend:
# [1] = Scavenging of superoxide radicals (NBT method); conditions: complex concentration causing 50 % reduction of superoxide ion referred to that of ascorbic acid; NBT assay in DMSO
# Procedure: Nitro blue tetrazolium (NBT, 98 % purity), KO2 (96 % purity) and 18-Crown-6 (99 % purity) were purchased from Sigma-Aldrich. The superoxide scavenging activity of the complexes was determined by using their ability to inhibit the reduction of nitro blue tetrazolium (NBT) by superoxide ions. UV–vis measurements were carried out by using the Perkin-Elmer Lambda 650 spectrophotometer equipped with the temperature control—Peltier system with a scan accuracy of 1 and 1-nm slit width. The measurements were carried out in DMSO solution at 288.15 K according to the method described in the literature. Superoxide free radicals were generated by dissolving 6.5-mg portion of KO2 powder into DMSO (50 mL) together with 90 mg of 18-crown-6-ether. NBT (10 mg) was dissolved directly in DMSO (10 mL). In general, 1.5 mL of DMSO/KO2/18-crown-6 mixture was added to 0.5 mL of the sample to be assayed. The mixture was kept for 20 min and then 0.1 mL of NBT solution was added while stirring. The absorbance was monitored spectrophotometrically at 560 nm. The control test was carried out under the same experimental condition under assumption that KO2 and 18-crown-6 were absent in DMSO.
# The ability of the complexes to scavenge superoxide anion radicals was evaluated by the NBT assay. The measurements were carried out in the DMSO solution in which KO2 was dissolved via the use of a crown ether to generate superoxide radicals (see Material and Methods).
# The antioxidant activities of the complexes towards O2 ^− were compared to each other. Based on the obtained relationships (Fig. 3), the complex concentrations causing the 50 % reduction of the concentration of the superoxide ion were calculated. The obtained values were referred to the concentration of ascorbic acid causing the same O2 ^− reduction effect measured at the same experimental conditions. In this way, ascorbic acid equivalents of the complexes were obtained. They are equal 0.35, 1.11 and 4.50 for VO(ODA), Ni(ODA) and Co(ODA), respectively.
# [2] = test system: Human Dermal Fibroblasts adult (HDFa) cell line; assay: Cytotoxicity assay (MTT); type: cell-based; conditions: for viability of the cells / cytotoxic effect / LC50 / CC50: HDFa, MTT; for viability of the cells: 500 μM; for cytotoxic effect: 1–500 μM; for CC50: read-out: LC50 (the source's name)
# Procedure: The Human Dermal Fibroblasts adult (HDFa) cell line (Cascade Biologics) was used in all experiments. Unless otherwise specified, cells were grown in the Dulbecco’s modified Eagle’s medium (DMEM) supplemented with 10 % fetal bovine serum (FBS) and 1× antibiotic and antimycotic solutions (all purchased from Sigma) and incubated at 310.15 K in the humidified 5 % CO2 atmosphere.
# HDFa cells were plated at 6 × 10^3 cells per well in a 96-well tissue culture plate and incubated overnight at 310.15 K to allow the attachment. The growth medium was substituted with the medium supplemented with tested complex compounds. After 24- or 48-h incubation, the cell viability was assessed using the MTT solution (3-(4,5-dimethylthiazol-2-yl)-2,5-diphenyltetrazolium bromide [Sigma]) at a concentration of 1 mg/mL prepared in the RPMI-1640 medium (Sigma). After 2-h incubation at 310.15 K, the amount of purple formazan product, dissolved in dimethylsulfoxide (DMSO) (Sigma), was quantified by measuring the absorbance at 550 nm.
# [3] = test system: Human Dermal Fibroblasts adult (HDFa) cell line; assay: Proliferation assay (BrdU ELISA); type: cell-based; conditions: 6 day-exposure, 24-h BrdU incorporation
# Procedure: The Human Dermal Fibroblasts adult (HDFa) cell line (Cascade Biologics) was used in all experiments. Unless otherwise specified, cells were grown in the Dulbecco’s modified Eagle’s medium (DMEM) supplemented with 10 % fetal bovine serum (FBS) and 1× antibiotic and antimycotic solutions (all purchased from Sigma) and incubated at 310.15 K in the humidified 5 % CO2 atmosphere. The antiproliferative activity of compounds was assessed using the Cell Proliferation ELISA, BrdU (colorimetric) kit (Roche Applied Science). Cells were seeded at a number of 10^3 cells per well of 96-well tissue culture plate and incubated overnight at 310.15 K. The growth medium was substituted with the medium supplemented with tested compounds, and after 5 days of incubation, labelling with 5-bromo-2′-deoxyuridine (BrdU) was performed for another 24 h. Following steps were performed according to the manufacturer’s protocol.
# [4] = test system: Human Dermal Fibroblasts adult (HDFa) cell line; assay: Cytoprotective activity against H2O2 oxidative damage (MTT); type: cell-based
# Procedure: The Human Dermal Fibroblasts adult (HDFa) cell line (Cascade Biologics) was used in all experiments. Unless otherwise specified, cells were grown in the Dulbecco’s modified Eagle’s medium (DMEM) supplemented with 10 % fetal bovine serum (FBS) and 1× antibiotic and antimycotic solutions (all purchased from Sigma) and incubated at 310.15 K in the humidified 5 % CO2 atmosphere. Cells were plated at 2 × 10^3 cells per well of 96-well tissue culture plate. After an overnight incubation, cells were washed with DMEM without FBS and next treated with 1 mM hydrogen peroxide (H2O2) (Sigma) together with different concentrations of tested complex compounds or with 1 mM H2O2 alone to induce the oxidative damage to cells resulting in the necrotic death. Mixtures were prepared in the growth medium (DMEM) without FBS. Cells treated with the growth medium only were used as a control of normal viability. After 1-h incubation at 310.15 K, the medium was removed and cells were washed with the growth medium containing 10 % FBS to stop the H2O2 activity. Next, either the cell viability was assessed using the MTT solution (see previous paragraph) or additional incubation of cells in DMEM containing 10 % FBS for another 48 h was performed and then cells were tested for the viability (the MTT assay). The cytoprotective activity of complex compounds against the oxidative damage was calculated relatively to untreated control cells, not exposed to H2O2.
# [5] = test system: Bacillus subtilis; assay: Disc diffusion test; type: cell-based; conditions: B. subtilis
# Procedure: The antimicrobial activity of complex compounds was assessed against Bacillus subtilis, Escherichia coli, Enterococcus faecalis, Pseudomonas aeruginosa, Staphylococcus aureus, Staphylococcus epidermidis (all strains were from the collection of the Department of Molecular Biology, University of Gdańsk). All bacteria were cultured in the Luria-Bertani (LB) broth at 310.15 K in the air with shaking. LB agar plates were prepared by the supplementation of LB broth with the 1.5 % bacteriological agar. Stock solutions of complex compounds were freshly prepared in the LB broth at the concentration of 25 mg/mL. Aliquots of 0.05 mL of bacterial culture at the optical density at 600 nm of 0.1 (inoculum 5 × 10^6 cells per plate) were spread on LB agar plates. Sterile filter paper discs (of 6 mm diameter) were impregnated with solutions of complex compounds prepared in the deionized water at the following amounts: 0.1, 0.2, 0.5 and 1.0 mg per disc and placed on agar plates. After an overnight incubation at 310.15 K, zones of bacterial growth inhibition were measured. Neomycin at the amount of 0.1 mg/disc was used as a control.
# [6] = 1 mM H2O2 with complex 1 h, then additional 48-h incubation in growth medium
# [7] = 1 mM H2O2 with complex, 1-h exposure
SMILES,ascorbic acid equivalents [1],viability of the cells ([2]; 24 h),viability of the cells ([2]; 48 h),cytotoxic effect ([2]; 24 h),LC50 ([2]; 24-h exposure time),IC25 [3] [µM],pIC50 [3],IC75 [3] [µM],"cytoprotective activity against oxidative damage [4, 6]","cytoprotective activity against oxidative damage [4, 7]",Zone of growth inhibition ([5]; 500 μg/disc) [mm],Zone of growth inhibition ([5]; 1000 μg/disc) [mm],CC50 ([2]; 48-h exposure time) [µM],other results
"O.O.O.O=C(O)COCC(=O)O.[Co] [Co(ODA), [Co(ODA)(H2O)2]·H2O]",4.50,no less than 95%,about 90%,no significant cytotoxic effects,Immeasurable,128.90,3.76,>1000,grow and proliferate at similar levels to untreated control cells,highest dose- and time-dependent protective effect,9,11,–,"LC25 [2]: Immeasurable; LC75 [2]: Immeasurable; LC50 ([2]; 48-h exposure time): Immeasurable; pIC50 ([3]; listed as Co(II) complex): ~3.70; viability of cells ([4]; 1 mM H2O2 together with 500 μM complex, 1 h): ca. 100%"
"O.O.O.O.O.O.O.O.O.O=C([O-])COCC(=O)[O-].O=C([O-])COCC(=O)[O-].[Ni+2].[Ni+2] [Ni(ODA), [Ni(ODA)(H2O)3]·1.5H2O]",1.11,no less than 95%,~75%,no significant cytotoxic effects,Immeasurable,148.65,3.66,>1000,no influence on the viability of cells,no influence on the viability of cells,8,8,1310,pIC50 ([3]; listed as Ni(II) complex): ~3.70
"O.O.O=C([O-])COCC(=O)[O-].[O]=[V+2] [VO(ODA), [VO(ODA)(H2O)2]]",0.35,–,–,exhibits the cytotoxic effect,–,23.41,4.60,26.42,induces the cell death,"to some extent, exhibits the cytoprotective activity",–,7,87.5,CC50 ([2]; 24-h exposure time): 296 µM; pIC50 ([3]; listed as oxovanadium(IV) complex): 4.60
